The text below walks through data of patent US20230382871A1, “CSF1R KINASE INHIBITOR AND USE THEREOF” (SHANGHAI INSTITUTE OF MATERIA MEDICA, CHINESE ACADEMY OF …, priority 2020, published 2023).

Data set [1] has as its system human colorectal cancer HT-29 subcutaneous xenografts. Briefly: Human colorectal cancer HT-29 subcutaneous xenografts in nude mice. In kind it is in vivo, BALB/c nude mice. Conditions: 40 mg/kg bid × 21 po. From the text: BALB/c female nude mice of 6 weeks old were used, and were provided by Shanghai Lingchang Biotechnology Co., Ltd.
Human colorectal cancer HT-29 cells were subcutaneously inoculated into the right axillary fossa of a nude mouse (5×10^6 cells/mouse). After a xenograft was formed, the tumor was transferred to a nude mouse for 1 passage.
Tumor tissues at the vigorous growth stage were removed and cut into pieces of approximately 1.5 mm^3. The tumor fragments were inoculated subcutaneously into the right axillary fossa of nude mice under aseptic conditions. The diameters of the subcutaneous xenografts in nude mice were measured with a vernier caliper. The animals were randomly grouped after the xenografts reached an average volume of about 120 mm^3. Compound I was administered orally at doses of 20 mg/kg, 10 mg/kg and 5 mg/kg twice a day for 21 consecutive days. An equal volume of a blank preparation was administered orally twice a day for 21 consecutive days. The positive control drug Axitinib was administered orally at a dose of 40 mg/kg group twice a day for 21 consecutive days. An equal volume of water for injection was administered to the animals in the solvent group. Throughout the experiment, the diameters of the xenografts were measured twice a week and the mice were weighed at the same time. The tumor volume (TV) was calculated as TV=½×a×b^2, where “a” and “b” denote the length and width of a tumor, respectively. The relative tumor volume (RTV) was calculated from the measurement results with the calculation formula RTV=Vt/V0, in which V0 is the tumor volume measured upon administration after grouping (i.e., D0) and Vt is the tumor volume from each measurement. The evaluation index of anti-tumor activity is the relative tumor proliferation rate T/C (%), which is calculated as T/C (%)=(TRTV/CRTV)×100%, in which TRTV denotes the RTV from the treatment group and CRTV denotes the RTV from solvent group.
In general terms: Xenograft models place foreign cells or tissue in a host animal.

Data set [2] deals with macrophage marker F4/80 in HT-29 tumor tissues. Briefly: Immunohistochemistry of macrophage marker F4/80 in HT-29 tumor tissues. In kind it is in vivo, nude mice. As to conditions: Compound I 5, 10, 20 mg/kg; Axitinib 40 mg/kg. How it is done:
At the end of the in vivo experiments, U87MG and HT-29 xenografts in nude mice were removed and fixed with […] to prepare paraffin sections. Expression of individual proteins was assessed using multiplicative quick score method (MQS). This evaluation method takes into account both the staining intensity and the staining range. […] The average intensity score of positive stained cells was 0 to 3 (0=no staining; 1=weak staining; 2=moderate staining; 3=strong staining). The total score a (minimum 0 and maximum 18) is then calculated by multiplying the range score by the intensity score.

Data set [3] relates to M2-type macrophage marker CD206 in HT-29 tumor tissues. Kind of data set: Immunohistochemistry of M2-type macrophage marker CD206 in HT-29 tumor tissues. In kind it is in vivo, nude mice. As to conditions: Compound I 5, 10, 20 mg/kg; Axitinib 40 mg/kg. How it is done:
(§1) At the end of the in vivo experiments, U87MG and HT-29 xenografts in nude mice were removed and fixed with […] to prepare paraffin sections.
(§2) Expression of individual proteins was assessed using multiplicative quick score method (MQS). This evaluation method takes into account both the staining intensity and the staining range. The method estimates the proportion of positive cells and gives a range score from 1 to 6 (1=1%-4%; 2=5%-19%; 3=20%-39%; 4=40%-59%; 5=60%-79%; 6=80%-100%). The average intensity score of positive stained cells was 0 to 3 (0=no staining; 1=weak staining; 2=moderate staining; 3=strong staining). The total score a (minimum 0 and maximum 18) is then calculated by multiplying the range score by the intensity score.
For detecting the changes in the macrophage marker F4/80 and M2-type macrophage marker CD206 in the HT-29 tumor tissues, quantitative analysis (solvent: n=12, blank preparation: n=6, Compound I (5 mg/kg): n=6, Compound I (10 mg/kg): n=6, Compound I (20 mg/kg): n=6, Axitinib: n=6) was performed on all sections and the experimental data were analyzed for significant differences using the t-test. * denotes p<0.05 as compared with the blank preparation group, ** denotes p<0.01 as compared with the blank preparation group, and denotes p<0.001 as compared with the blank preparation group.

The subject of data set [4] is human glioma U87MG subcutaneous xenografts. Briefly: Human glioma U87MG subcutaneous xenografts in nude mice. As to conditions: 40 mg/kg bid × 21 po. In kind it is in vivo, BALB/c nude mice. How it is done: BALB/c nude female mice of 3-4 weeks old were used, and were provided by […] […] OF MATERIA MEDICA, CHINESE ACADEMY OF SCIENCES.
Human glioma U87MG cells were subcutaneously inoculated into the right axillary fossa of a nude mouse (5×10^6 cells/mouse). After a xenograft was formed, the tumor was transferred to a nude mouse for 1 passage.
Tumor tissues at the vigorous growth stage were removed and cut into pieces of approximately 1.5 mm^3. The tumor fragments were inoculated subcutaneously into the right axillary fossa of nude mice under aseptic conditions. The diameters of the subcutaneous xenografts in nude mice were measured with a vernier caliper. The animals were randomly grouped after the xenografts reached an average volume of about 90 mm^3. Compound I was administered orally at doses of 40 mg/kg, 20 mg/kg and 10 mg/kg twice a day for 21 consecutive days. An equal volume of a blank preparation was administered orally twice a day for 21 consecutive days. The positive control drug Axitinib was administered orally at a dose of 40 mg/kg group twice a day for 21 consecutive days. An equal volume of water for injection was administered to the animals in the solvent group. Throughout the experiment, the diameters of the xenografts were measured twice a week and the mice were weighed at the same time. The tumor volume (TV) was calculated as TV=½×a×b^2, where “a” and “b” denote the length and width of a tumor, respectively. The relative tumor volume (RTV) was calculated from the measurement results with the calculation formula RTV=Vt/V0, in which V0 is the tumor volume measured upon administration after grouping (i.e., D0) and Vt is the tumor volume from each measurement. The evaluation index of anti-tumor activity is the relative tumor proliferation rate T/C (%), which is calculated as T/C (%)=(TRTV/CRTV)×100%, in which TRTV denotes the RTV from the treatment group and CRTV denotes the RTV from solvent group.

Data set [5] has as its system macrophage marker F4/80 in U87MG tumor tissues. Kind of data set: Immunohistochemistry of macrophage marker F4/80 in U87MG tumor tissues. In kind it is in vivo, nude mice. As to conditions: 40 mg/kg, compared with blank preparation group. Here is the method:
as §1, §2
(§3) For detecting the changes in the macrophage marker F4/80 and M2-type macrophage marker CD206 in the U87MG tumor tissues, quantitative analysis (solvent: n=6, blank preparation: n=6, Compound I (10 mg/kg): n=6, Compound I (20 mg/kg): n=6, Compound I (40 mg/kg): n=6, Axitinib: n=4) was performed on all sections and the experimental data were analyzed for significant differences using the t-test. * denotes p<0.05 as compared with the blank preparation group, ** denotes p<0.01 as compared with the blank preparation group, and denotes p<0.001 as compared with the blank preparation group.

Data set [6] relates to human glioma U87MG brain in situ transplantation. Kind of data set: Survival in U87MG brain in situ transplantation model in nude mice. In kind it is in vivo, BALB/cA nude mice.
The test system of data set [7] is M2-type macrophage marker CD206 in U87MG tumor tissues. Kind of data set: Immunohistochemistry of M2-type macrophage marker CD206 in U87MG tumor tissues. In kind it is in vivo, nude mice. As to conditions: 40 mg/kg. How it is done: as §1, §2, §3
The test system of the next data set is BMDM cells. Kind of data set: CCK8 cell proliferation inhibition assay on CSF1-stimulated bone marrow-derived macrophages. Conditions: Mus musculus, 72 h exposure. In kind it is cell-based, mice (BALB/c). Here is the method:
Mice (BALB/c) were subjected to euthanasia and then immersed in 75% alcohol for 3-5 min. The tibias and femurs of the mice were removed with ophthalmic forceps and ophthalmic clips on an ultraclean table. The tibial and femoral joints were cut off and bone marrow cells were washed out with a sterile buffer. Bone marrow cells were filtered with a 70 µm nylon membrane. The filtrate was centrifuged and the supernatant was discarded. An erythrocyte lysate was added to the pellets, which were allowed to incubate for 3-4 min. Then, a sterile buffer was added to stop the lysis reaction. The reactant was centrifuged and the supernatant was discarded, thereby yielding bone marrow cell pellets. The cells were cultured in 1640 medium (supplemented with FBS and 10 ng/mL of CSF1) for 5 to 7 days and identified as macrophages by flow cytometry. CCK8 cell counting kits were used in this assay. Bone marrow-derived macrophages, after induction by CSF1 for 5 to 7 days, were seeded into 96-well culture plates and allowed to incubate overnight. Then, the cells were exposed to compounds at various concentrations for 72 h. A blank control group was set. 10 μL of CCK8 reagent was added to each well and the places were placed in an incubator for 4 to 12 h. The plates were read with a microplate reader at a wavelength of 450 nm. […] Each experiment was independently repeated for three times.

The conditions of data set [8]: treated patients; cited from earlier work.
Setting [9] is: 40 mg/kg, implantation day as Day 0.

“And” between values parts separate entries of the source, which are not always exact repeats. Equal entries are not always repeated.

Take `CNC(=O)c1ccccc1Sc1ccc2c(/C=C/c3ccccn3)n[nH]c2c1` [Axitinib, reference compound]: in data set [1] (D 0), the “Body Weight (g) D 0” value was determined as 19.1 g and the “TV (mm3, mean ± SD) D 0” value came to 123 ± 35 mm3. Also, in data set [1] (D 21), the “Body Weight (g) D 21” value was determined as 17.5 g; the “RTV (mean ± SD)” value came to 4.30 ± 1.82; the “TV (mm3, mean ± SD) D 21” value was 505 ± 202 mm3. In data set [1] (Day 21), the “T/C (%)” value is on record as 48.88%. For the same compound, the “expression of F4/80, HT-29 tumor tissue” value in [2] is listed as “no inhibitory activity”. The “expression of CD206, HT-29 tumor tissue” value in data set [3] is recorded as “no inhibitory activity”. Also, in [4] (D 0), the “Body Weight (g) D 0” value stood at 16.0 g and the “TV (mm^3, mean ± SD) D 0” value was determined as 88 ± 17 mm^3. Besides, in data set [4] (D 21), the “Body Weight (g) D 21” value was 18.0 g; the “RTV (mean ± SD)” value is 9.08 ± 5.66; the “TV (mm^3, mean ± SD) D 21” value is reported as 795 ± 478 mm^3. For the same compound, the “T/C (%)” value in [4] (Day 21) is on record as 30.27%. In addition, the “expression of F4/80 in macrophages, U87MG tumor tissue” value in data set [5] is recorded as “no significant effect”. Besides, the “Median survival time, MST” value in data set [6] (40 mg/kg po twice a day from Day 8) was 41 days and 41.0 days. Moreover, in [6] (setting [9]), the “day of first death in the group” value turned out to be 28 days and the “day of last death in the group” value was 48 days. Besides, in data set [6] (40 mg/kg, vs solvent group MST), the “ILS (%), Increase in Life Span” value is recorded as −10.87%. Also, the “expression of M2-type macrophage marker CD206, U87MG tumor tissue” value in [7] is given as “no significant effect”.

Turning to `FC(F)(F)c1ccc(CNc2ccc(Cc3c[nH]c4ncc(Cl)cc34)cn2)cn1` [PLX3397, Pexidartinib, reference compound], the half-inhibitory concentration (IC50) in the data set on BMDM cells was found to be 30 ± 9 nM.

On to Yervoy: an anti-CTLA-4 antibody, for which, in data set [8], the “patients experiencing immune-related adverse events” value is “up to 60%” and the “share of immune-related adverse events that were severe (grade 3-4)” value is given as 10-30%.

Broadly, the IC50 is the concentration that gives 50% inhibition. High values mean weaker potency, low ones greater potency.
